“Also recorded” adds a separate entry of the source.
Test system: premenstrual syndrome
Experiment: Blind test with questionnaire survey: alleviating effect on premenstrual syndrome, once a day for eight weeks
Type: in vivo, women
Conditions: for share of group with somewhat or significant alleviation of the main symptoms of premenstrual syndrome: administration group of 600 mg, across main symptoms; for share of group that answered alleviation in the main symptoms / share of group that did not feel changes in the main symptoms of premenstrual syndrome: administration group of 1,200 mg or 2,400 mg; for alleviation, percentage / alleviation, the number of people / complete alleviation, percentage / complete alleviation, the number of people / no change, percentage / no change, the number of people / significant alleviation, percentage / significant alleviation, the number of people: eight weeks; for effect on the main symptoms of premenstrual syndrome (dysmenorrhea, period of dysmenorrhea, coldness of hands and feet), in words: daily dose of 600 mg, 1,200 mg, and 2,400 mg
Excerpt: 1. Evaluation of Administration of Pinitol or D-Chiro-Inositol to Female Subject Pinitol and D-chiro-inositol were purchased from Biosearch Life (Camino de Purchil, 66. 18004 Granada, Spain). Selected as experiment subjects were 80 normal women of reproductive age, that is, 80 women at the age of 25-40 who had neither skipped three or more cycles of menstruation, nor been administered with a contraceptive pill, and nor received a psychiatric treatment. Of them, 40 persons were classified into four groups of 10 which were then administered respectively with a placebo free of pinitol and having no pharmaceutical effects and with pinitol at three different doses. Likewise, the remaining 40 persons were equally divided into one placebo group and three experimental groups to which D-chiro-inositol was administered at three different doses, respectively. A blind test was conducted in which the placebo and pinitol or D-chiro-inositol was administered once a day for eight weeks. Pinitol or D-chiro-inositol was administered at daily doses of 600 mg, 1,200 mg, and 2,400 mg for eight weeks. A survey was made of the experimental subjects before and after the clinical test of placebo and pinitol or D-chiro-inositol to evaluate the alleviating effect of pinitol or D-chiro-inositol on premenstrual syndrome. 2. Survey In the present disclosure, the questionnaire that experimental subjects had completed with respect to the severity of premenstrual syndrome were analyzed. The experimental subjects evaluated the placebo, pinitol, or D-chiro-inositol for a pharmacological effect on premenstrual syndrome on the basis of four grades: complete alleviation, significant alleviation, somewhat alleviation, and no change for dysmenorrhea, a period of dysmenorrhea, and coldness of hands and feet. [table]

[1] = administration group of 1,200 mg
[2] = administration group of 2,400 mg
[3] = coldness of hands and feet, 600 mg a day
[4] = coldness of hands and feet, 1,200 mg a day
[5] = coldness of hands and feet, 2,400 mg a day
[6] = period of dysmenorrhea, 600 mg a day
[7] = period of dysmenorrhea, 1,200 mg a day
[8] = period of dysmenorrhea, 2,400 mg a day

`O[C@H]1[C@H](O)[C@H](O)[C@@H](O)[C@H](O)[C@H]1O` [DCI, D-chiro-inositol] was tested, and the “share of group with somewhat or significant alleviation of the main symptoms of premenstrual syndrome” value was 50-60%, the “share of group with complete alleviation of the main symptoms” value [1] was at least 50% and the “share of group that answered alleviation in the main symptoms” value was 80-90%. For the same compound, the “share of group that did not feel changes in the main symptoms of premenstrual syndrome” value was 10%, the “share of group with complete alleviation of the main symptoms” value [2] was 70-80% and the “alleviation, percentage” value [3] was 30.0%. The “alleviation, the number of people” value [3] was 3 person, the “complete alleviation, percentage” value [3] was 0.0% and the “complete alleviation, the number of people” value [3] was 0 person. The “no change, percentage” value [3] was 50.0%, the “no change, the number of people” value [3] was 5 person and the “significant alleviation, percentage” value [3] was 20.0%. The “significant alleviation, the number of people” value [3] was 2 person, the “alleviation, percentage” value [4] was 20.0% and the “alleviation, the number of people” value [4] was 2 person. For the same compound, the “complete alleviation, percentage” value [4] was 50.0%, the “complete alleviation, the number of people” value [4] was 5 person and the “no change, percentage” value [4] was 10.0%. The “no change, the number of people” value [4] was 1 person, the “significant alleviation, percentage” value [4] was 20.0% and the “significant alleviation, the number of people” value [4] was 2 person. The “alleviation, percentage” value [5] was 0.0%, the “alleviation, the number of people” value [5] was 0 person and the “complete alleviation, percentage” value [5] was 80.0%. For the same compound, the “complete alleviation, the number of people” value [5] was 8 person, the “no change, percentage” value [5] was 10.0% and the “no change, the number of people” value [5] was 1 person. For the same compound, the “significant alleviation, percentage” value [5] was 10.0%, the “significant alleviation, the number of people” value [5] was 1 person and the “effect on the main symptoms of premenstrual syndrome (dysmenorrhea, period of dysmenorrhea, coldness of hands and feet), in words” value was “Significant reductions; also recorded: significantly alleviating”. For the same compound, the “alleviation, percentage” value (dysmenorrhea, 600 mg a day) was 20.0%, the “alleviation, the number of people” value (dysmenorrhea, 600 mg a day) was 2 person and the “complete alleviation, percentage” value (dysmenorrhea, 600 mg a day) was 0.0%. For the same compound, the “complete alleviation, the number of people” value (dysmenorrhea, 600 mg a day) was 0 person, the “no change, percentage” value (dysmenorrhea, 600 mg a day) was 40.0% and the “no change, the number of people” value (dysmenorrhea, 600 mg a day) was 4 person. The “significant alleviation, percentage” value (dysmenorrhea, 600 mg a day) was 40.0%, the “significant alleviation, the number of people” value (dysmenorrhea, 600 mg a day) was 4 person and the “alleviation, percentage” value (dysmenorrhea, 1,200 mg a day) was 20.0%. For the same compound, the “alleviation, the number of people” value (dysmenorrhea, 1,200 mg a day) was 2 person, the “complete alleviation, percentage” value (dysmenorrhea, 1,200 mg a day) was 50.0% and the “complete alleviation, the number of people” value (dysmenorrhea, 1,200 mg a day) was 5 person. The “no change, percentage” value (dysmenorrhea, 1,200 mg a day) was 0.0%, the “no change, the number of people” value (dysmenorrhea, 1,200 mg a day) was 0 person and the “significant alleviation, percentage” value (dysmenorrhea, 1,200 mg a day) was 30.0%. For the same compound, the “significant alleviation, the number of people” value (dysmenorrhea, 1,200 mg a day) was 3 person, the “alleviation, percentage” value (dysmenorrhea, 2,400 mg a day) was 0.0% and the “alleviation, the number of people” value (dysmenorrhea, 2,400 mg a day) was 0 person. The “complete alleviation, percentage” value (dysmenorrhea, 2,400 mg a day) was 90.0%, the “complete alleviation, the number of people” value (dysmenorrhea, 2,400 mg a day) was 9 person and the “no change, percentage” value (dysmenorrhea, 2,400 mg a day) was 0.0%. For the same compound, the “no change, the number of people” value (dysmenorrhea, 2,400 mg a day) was 0 person, the “significant alleviation, percentage” value (dysmenorrhea, 2,400 mg a day) was 10.0% and the “significant alleviation, the number of people” value (dysmenorrhea, 2,400 mg a day) was 1 person. For the same compound, the “alleviation, percentage” value [6] was 20.0%, the “alleviation, the number of people” value [6] was 2 person and the “complete alleviation, percentage” value [6] was 0.0%. The “complete alleviation, the number of people” value [6] was 0 person, the “no change, percentage” value [6] was 50.0% and the “no change, the number of people” value [6] was 5 person. For the same compound, the “significant alleviation, percentage” value [6] was 30.0%, the “significant alleviation, the number of people” value [6] was 3 person and the “alleviation, percentage” value [7] was 10.0%. The “alleviation, the number of people” value [7] was 1 person, the “complete alleviation, percentage” value [7] was 60.0% and the “complete alleviation, the number of people” value [7] was 6 person. The “no change, percentage” value [7] was 10.0%, the “no change, the number of people” value [7] was 1 person and the “significant alleviation, percentage” value [7] was 20.0%. The “significant alleviation, the number of people” value [7] was 2 person, the “alleviation, percentage” value [8] was 0.0% and the “alleviation, the number of people” value [8] was 0 person. The “complete alleviation, percentage” value [8] was 80.0%, the “complete alleviation, the number of people” value [8] was 8 person and the “no change, percentage” value [8] was 0.0%. The “no change, the number of people” value [8] was 0 person, the “significant alleviation, percentage” value [8] was 20.0% and the “significant alleviation, the number of people” value [8] was 2 person.
`CO[C@H]1[C@H](O)[C@@H](O)[C@@H](O)[C@H](O)[C@@H]1O` [Pinitol, pinitol] was tested, and the “share of group with somewhat or significant alleviation of the main symptoms of premenstrual syndrome” value was 50-60%, the “share of group with complete alleviation of the main symptoms” value [1] was at least 50% and the “share of group that answered alleviation in the main symptoms” value was 80-90%. The “share of group that did not feel changes in the main symptoms of premenstrual syndrome” value was 10%, the “share of group with complete alleviation of the main symptoms” value [2] was 70-80% and the “alleviation, percentage” value [3] was 40.0%. For the same compound, the “alleviation, the number of people” value [3] was 4 person, the “complete alleviation, percentage” value [3] was 0.0% and the “complete alleviation, the number of people” value [3] was 0 person. The “no change, percentage” value [3] was 50.0%, the “no change, the number of people” value [3] was 5 person and the “significant alleviation, percentage” value [3] was 10.0%. The “significant alleviation, the number of people” value [3] was 1 person, the “alleviation, percentage” value [4] was 10.0% and the “alleviation, the number of people” value [4] was 1 person. The “complete alleviation, percentage” value [4] was 40.0%, the “complete alleviation, the number of people” value [4] was 4 person and the “no change, percentage” value [4] was 20.0%. The “no change, the number of people” value [4] was 2 person, the “significant alleviation, percentage” value [4] was 30.0% and the “significant alleviation, the number of people” value [4] was 3 person. The “alleviation, percentage” value [5] was 10.0%, the “alleviation, the number of people” value [5] was 1 person and the “complete alleviation, percentage” value [5] was 70.0%. For the same compound, the “complete alleviation, the number of people” value [5] was 7 person, the “no change, percentage” value [5] was 10.0% and the “no change, the number of people” value [5] was 1 person. The “significant alleviation, percentage” value [5] was 10.0%, the “significant alleviation, the number of people” value [5] was 1 person and the “effect on the main symptoms of premenstrual syndrome (dysmenorrhea, period of dysmenorrhea, coldness of hands and feet), in words” value was “Significant reductions; also recorded: significantly alleviating”. The “alleviation, percentage” value (dysmenorrhea, 600 mg a day) was 30.0%, the “alleviation, the number of people” value (dysmenorrhea, 600 mg a day) was 3 person and the “complete alleviation, percentage” value (dysmenorrhea, 600 mg a day) was 0.0%. For the same compound, the “complete alleviation, the number of people” value (dysmenorrhea, 600 mg a day) was 0 person, the “no change, percentage” value (dysmenorrhea, 600 mg a day) was 40.0% and the “no change, the number of people” value (dysmenorrhea, 600 mg a day) was 4 person. For the same compound, the “significant alleviation, percentage” value (dysmenorrhea, 600 mg a day) was 30.0%, the “significant alleviation, the number of people” value (dysmenorrhea, 600 mg a day) was 3 person and the “alleviation, percentage” value (dysmenorrhea, 1,200 mg a day) was 10.0%. The “alleviation, the number of people” value (dysmenorrhea, 1,200 mg a day) was 1 person, the “complete alleviation, percentage” value (dysmenorrhea, 1,200 mg a day) was 60.0% and the “complete alleviation, the number of people” value (dysmenorrhea, 1,200 mg a day) was 6 person. For the same compound, the “no change, percentage” value (dysmenorrhea, 1,200 mg a day) was 10.0%, the “no change, the number of people” value (dysmenorrhea, 1,200 mg a day) was 1 person and the “significant alleviation, percentage” value (dysmenorrhea, 1,200 mg a day) was 20.0%. The “significant alleviation, the number of people” value (dysmenorrhea, 1,200 mg a day) was 2 person, the “alleviation, percentage” value (dysmenorrhea, 2,400 mg a day) was 0.0% and the “alleviation, the number of people” value (dysmenorrhea, 2,400 mg a day) was 0 person. For the same compound, the “complete alleviation, percentage” value (dysmenorrhea, 2,400 mg a day) was 80.0%, the “complete alleviation, the number of people” value (dysmenorrhea, 2,400 mg a day) was 8 person and the “no change, percentage” value (dysmenorrhea, 2,400 mg a day) was 0.0%. For the same compound, the “no change, the number of people” value (dysmenorrhea, 2,400 mg a day) was 0 person, the “significant alleviation, percentage” value (dysmenorrhea, 2,400 mg a day) was 20.0% and the “significant alleviation, the number of people” value (dysmenorrhea, 2,400 mg a day) was 2 person. The “alleviation, percentage” value [6] was 20.0%, the “alleviation, the number of people” value [6] was 2 person and the “complete alleviation, percentage” value [6] was 0.0%. For the same compound, the “complete alleviation, the number of people” value [6] was 0 person, the “no change, percentage” value [6] was 50.0% and the “no change, the number of people” value [6] was 5 person. For the same compound, the “significant alleviation, percentage” value [6] was 30.0%, the “significant alleviation, the number of people” value [6] was 3 person and the “alleviation, percentage” value [7] was 20.0%. The “alleviation, the number of people” value [7] was 2 person, the “complete alleviation, percentage” value [7] was 50.0% and the “complete alleviation, the number of people” value [7] was 5 person. The “no change, percentage” value [7] was 10.0%, the “no change, the number of people” value [7] was 1 person and the “significant alleviation, percentage” value [7] was 20.0%. For the same compound, the “significant alleviation, the number of people” value [7] was 2 person, the “alleviation, percentage” value [8] was 0.0% and the “alleviation, the number of people” value [8] was 0 person. For the same compound, the “complete alleviation, percentage” value [8] was 80.0%, the “complete alleviation, the number of people” value [8] was 8 person and the “no change, percentage” value [8] was 0.0%. The “no change, the number of people” value [8] was 0 person, the “significant alleviation, percentage” value [8] was 20.0% and the “significant alleviation, the number of people” value [8] was 2 person.
